From paper PMC7558102, “Hybrid Multimodal Imaging Synthons for Chemoselective and Efficient Biomolecule Modification with Chelator and Near-Infrared Fluorescent Cyanine Dye” (Pharmaceuticals, 2020)
Like-named read-outs stand apart in the source and are kept apart here.

Legend:
[1] = logD of the unconjugated NIR cyanine dyes 1–3; format: physicochemical; settings: 1-octanol/water; unconjugated dye
[2] = photophysical properties (absorbance and emission measurements); format: physicochemical; settings: for log ε: at λmax(abs); for λmax(em): excitation wavelength λex = 650 nm
Procedure: Finally, the photophysical properties were determined for dyes, MIS and their conjugates. It could be shown that the photophysical properties remained largely unaltered, including absorption coefficients and emission characteristics (Table 1). […] The only change in photophysical properties we qualitatively observed was an increase in the quantum yields of the dye conjugates compared to their unconjugated leads 1–3, an effect that was described before and can be attributed to the conjugation of sterically demanding groups (such as the PESIN homodimers used here), resulting in a decrease in aggregation of the dye molecules and thus a reduced fluorescence quenching. γ-Counting was performed using a 2480 Wizard gamma counter system from Perkin Elmer. A Cary 100 Bio system (Varian) was used to record the UV/Vis-Spectra together with 4 mL PMMA cuvettes from Sigma-Aldrich. Furthermore, for absorbance and emission measurements, a Tecan Infinite M200 Microplate reader together with a Nunc Micro-Well 96 solid plate from ThermoFisher was used.

[3] = format: physicochemical; settings: pH 7.4
Procedure: (§1) The mixtures were vigorously shaken for 5 min on a vibrating plate. After subsequent centrifugation at 13,000 rpm for 5 min, 125 µL was taken from each phase and measured in a γ-counter. The logD values were calculated from three or four independent experiments, each performed in triplicate. For 18, the logD was determined by semipreparative HPLC. For this purpose, a solution of 18 (10 µL, c = 5 × 10^−4 mol/L) in water was added to a mixture of 1 mL 1-octanol and 990 µL phosphate buffered solution (0.05 M, pH 7.4) and vigorously shaken for 5 min. After centrifugation, the phases were separated and both phases were analyzed by semipreparative HPLC and the peaks of the UV signals at 214 nm were integrated. The logD was determined by three separate measurements, each experiment performed in triplicate.

[4] = water/1-octanol partition coefficients (logD) of 68Ga-labeled compounds, γ-counting; format: physicochemical; settings: pH 7.4
Procedure: as §1

Row | Compound | logD [1] | Stokes Shift [2] [nm] | λmax(abs) [2] [nm] | log ε [2] [M^−1 cm^−1] | λmax(em) [2] [nm] | logD [3] | logD [4]
1 | CC1(C)C(/C=C/C2=C(c3ccc(C(=O)O)cc3)C(=C/C=C3/N(CCCCS(=O)(=O)[O-])c4ccc5ccccc5c4C3(C)C)/CCC2)=[N+](CCCCS(=O)(=O)O)c2ccc3ccccc3c21 [Compound 1] | -1.03 ± 0.11 | 11 | 804 | 5.00 | 815 |  | 
2 | CSCC[C@H](NC(=O)[C@H](CC(C)C)NC(=O)[C@H](Cc1c[nH]cn1)NC(=O)CNC(=O)[C@@H](NC(=O)[C@H](C)NC(=O)[C@H](Cc1c[nH]c2ccccc12)NC(=O)[C@H](CCC(N)=O)NC(=O)CCOCCOCCOCCOCCNC(=O)CON=Cc1ccc(C(=O)NCCCN(CCCNC(=O)c2ccc(C=NOCC(=O)NCCOCCOCCOCCOCCC(=O)N[C@@H](CCC(N)=O)C(=O)N[C@@H](Cc3c[nH]c4ccccc34)C(=O)N[C@@H](C)C(=O)N[C@H](C(=O)NCC(=O)N[C@@H](Cc3c[nH]cn3)C(=O)N[C@@H](CC(C)C)C(=O)N[C@@H](CCSC)C(N)=O)C(C)C)cc2)CC(=O)N[C@H](CSC2CC(=O)N(CCN3C(=O)CC(SC[C@H](NC(=O)[C@H](CCCCNC(=O)CCc4ccc(C5=C(C=CC6=[N+](CCCCS(=O)(=O)[O-])c7ccc(S(=O)(=O)O)cc7C6(C)C)CCCC5=CC=C5N(CCCCS(=O)(=O)O)c6ccc(S(=O)(=O)O)cc6C5(C)C)cc4)NC(=O)CC[C@H](C(=O)O)N4CCN(CC(=O)O)CCN(CC(=O)O)CC4)C(N)=O)C3=O)C2=O)C(=O)NCCOCCOCC(N)=O)cc1)C(C)C)C(N)=O (stereo partly drawn) [[68Ga]Ga-16, metal not drawn] |  |  |  |  |  |  | -2.55 ± 0.13
3 | CSCC[C@H](NC(=O)[C@H](CC(C)C)NC(=O)[C@H](Cc1c[nH]cn1)NC(=O)CNC(=O)[C@@H](NC(=O)[C@H](C)NC(=O)[C@H](Cc1c[nH]c2ccccc12)NC(=O)[C@H](CCC(N)=O)NC(=O)CCOCCOCCOCCOCCNC(=O)CON=Cc1ccc(C(=O)NCCCN(CCCNC(=O)c2ccc(C=NOCC(=O)NCCOCCOCCOCCOCCC(=O)N[C@@H](CCC(N)=O)C(=O)N[C@@H](Cc3c[nH]c4ccccc34)C(=O)N[C@@H](C)C(=O)N[C@H](C(=O)NCC(=O)N[C@@H](Cc3c[nH]cn3)C(=O)N[C@@H](CC(C)C)C(=O)N[C@@H](CCSC)C(N)=O)C(C)C)cc2)CC(=O)N[C@H](CSC2CC(=O)N(CCN3C(=O)CC(SC[C@H](NC(=O)CNC(=O)CC[C@H](C(=O)O)N4CCN(CC(=O)O)CCN(CC(=O)O)CC4)C(N)=O)C3=O)C2=O)C(=O)NCCOCCOCC(N)=O)cc1)C(C)C)C(N)=O (stereo partly drawn) [[68Ga]Ga-17, metal not drawn] |  |  |  |  |  |  | -2.38 ± 0.03

Now from value to molecule, other results behind:

Row | logD [1] | Stokes Shift [2] [nm] | λmax(abs) [2] [nm] | log ε [2] [M^−1 cm^−1] | λmax(em) [2] [nm] | logD [3] | Compound | logD [4]
4 | -4 ± 0.11 | 20 | 761 | 5.44 | 781 |  | CC1(C)C(/C=C/C2=C(c3ccccc3)C(=C/C=C3/N(CCCCS(=O)(=O)[O-])c4ccc(S(=O)(=O)O)cc4C3(C)C)/CCC2)=[N+](CCCCS(=O)(=O)O)c2ccc(C(=O)O)cc21 [Compound 2] | 
5 | -3.95 ± 0.15 | 19 | 756 | 5.32 | 775 |  | CC1(C)C(/C=C/C2=C(c3ccc(CCC(=O)O)cc3)C(=C/C=C3/N(CCCCS(=O)(=O)[O-])c4ccc(S(=O)(=O)O)cc4C3(C)C)/CCC2)=[N+](CCCCS(=O)(=O)O)c2ccc(S(=O)(=O)O)cc21 [Compound 3] | 
6 |  |  |  |  |  | -0.99 ± 0.03 | CSCC[C@H](NC(=O)[C@H](CC(C)C)NC(=O)[C@H](Cc1c[nH]cn1)NC(=O)CNC(=O)[C@@H](NC(=O)[C@H](C)NC(=O)[C@H](Cc1c[nH]c2ccccc12)NC(=O)[C@H](CCC(N)=O)NC(=O)CCOCCOCCOCCOCCNC(=O)CON=Cc1ccc(C(=O)NCCCN(CCCNC(=O)c2ccc(C=NOCC(=O)NCCOCCOCCOCCOCCC(=O)N[C@@H](CCC(N)=O)C(=O)N[C@@H](Cc3c[nH]c4ccccc34)C(=O)N[C@@H](C)C(=O)N[C@H](C(=O)NCC(=O)N[C@@H](Cc3c[nH]cn3)C(=O)N[C@@H](CC(C)C)C(=O)N[C@@H](CCSC)C(N)=O)C(C)C)cc2)CC(=O)N[C@H](CSC2CC(=O)N(CCN3C(=O)CC(SC)C3=O)C2=O)C(=O)NCCOCCOCC(N)=O)cc1)C(C)C)C(N)=O (stereo partly drawn) [Compound 18] | 
